Experimental data: patent US20240150362A1, “Substituted Pyrrolotriazines” (Molecure S.A., priority 2022, published 2024)
Counter-ions that a name gives are not always drawn.

molecular target: T1, full-length USP7 (Homo sapiens, UniProt Q93009); assay: Enzymatic assay to determine IC50 of USP7 inhibitors (Ubiquitin-Rhodamine 110 cleavage); assay type: biochemical; details: full-length USP7 0.5-1.0 nM, 0.5 μM Ubiquitin-Rhodamine 110, 30-60 min at 25° C.
T1 construct: A 45 μl reaction volume containing full-length USP7 (0.5-1.0 nM)
Description: Enzymatic Assay to Determine IC50 of USP7 Inhibitors
The IC50 is the concentration of an inhibitor where the measured enzyme activity is reduced by half. In the case of USP7 deubiquitinase, the IC50 of an USP7 inhibitor is the molar concentration of the compound that inhibits 50% of the activity observed in a USP7-mediated-ubiquitin-rhodamine cleavage assay. For the inhibitors disclosed herein, their potency was measured using the following method.
A 45 μl reaction volume containing full-length USP7 (0.5-1.0 nM) in 50 mM HEPES pH 7.5, 150 mM NaCl, 2 mM DTT, 1 mg/ml BSA and 0.05% Tween20 was assembled in wells of 96 well half area black flat bottom plates. Test compounds were first dissolved to 30 mM stocks in DMSO and subsequently introduced to enzyme 15 min after USP7 incubation with DTT at room temperature. The enzymatic reaction was started by adding 0.5 μM Ubiquitin-Rhodamine 110 (final concentration) and allowed to proceed for 30-60 min at 25° C., 250 RPM shaking before Rhodamine fluorescence (485 nm excitation/535 nm emission) was measured using Tecan Spark M10 plate reader. The IC50 values were determined by data fitting to variable slope model four-parameter dose-response curve using GraphPad 7.05.

T1 sequence (Q93009 whole entry): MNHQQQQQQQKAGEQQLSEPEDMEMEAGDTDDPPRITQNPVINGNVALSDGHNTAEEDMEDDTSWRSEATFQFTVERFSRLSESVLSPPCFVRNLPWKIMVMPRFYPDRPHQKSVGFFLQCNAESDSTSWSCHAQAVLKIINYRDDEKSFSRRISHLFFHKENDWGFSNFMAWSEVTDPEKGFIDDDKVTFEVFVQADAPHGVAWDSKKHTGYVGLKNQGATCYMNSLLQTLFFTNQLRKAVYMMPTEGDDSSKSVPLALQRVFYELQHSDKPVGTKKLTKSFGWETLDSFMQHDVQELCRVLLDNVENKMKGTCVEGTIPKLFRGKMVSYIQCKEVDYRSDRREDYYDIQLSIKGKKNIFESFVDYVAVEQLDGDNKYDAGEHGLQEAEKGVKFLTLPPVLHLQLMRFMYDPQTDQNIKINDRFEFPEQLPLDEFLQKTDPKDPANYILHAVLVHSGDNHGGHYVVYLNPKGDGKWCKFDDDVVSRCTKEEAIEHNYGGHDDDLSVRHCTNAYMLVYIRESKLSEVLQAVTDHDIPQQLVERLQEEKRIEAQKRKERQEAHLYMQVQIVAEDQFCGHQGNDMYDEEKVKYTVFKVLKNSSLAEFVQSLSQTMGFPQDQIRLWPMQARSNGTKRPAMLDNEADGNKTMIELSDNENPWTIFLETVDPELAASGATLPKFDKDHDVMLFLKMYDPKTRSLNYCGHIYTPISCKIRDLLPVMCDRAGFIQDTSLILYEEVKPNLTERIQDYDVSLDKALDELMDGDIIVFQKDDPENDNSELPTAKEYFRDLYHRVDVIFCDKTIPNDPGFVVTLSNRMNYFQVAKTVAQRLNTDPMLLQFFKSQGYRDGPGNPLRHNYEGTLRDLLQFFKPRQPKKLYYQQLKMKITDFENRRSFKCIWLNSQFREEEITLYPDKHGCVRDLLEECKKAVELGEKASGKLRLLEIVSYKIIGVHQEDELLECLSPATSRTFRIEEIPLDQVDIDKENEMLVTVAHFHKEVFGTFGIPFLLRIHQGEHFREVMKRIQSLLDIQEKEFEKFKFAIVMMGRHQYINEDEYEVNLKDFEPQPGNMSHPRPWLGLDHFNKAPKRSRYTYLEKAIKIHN

IC50	SMILES
< 500 nM	CC1(C)C2C(=O)N(Cc3cc4c(-c5cc(Cl)cc6c5N(C5CCNC5)CCO6)ncnn4c3)C(=O)C21 (stereo not shown) [Example 55, 3-((4-(7-chloro-4-(pyrrolidin-3-yl)-3,4-dihydro-2H-benzo[b][1,4]oxazin-5-yl)pyrrolo[2,1-f][1,2,4]triazin-6-yl)methyl)-6,6-dimethyl-3-azabicyclo[3.1.0]hexane-2,4-dione hydrochloride]
< 500 nM	Cc1cc(Cl)cc(-c2ncnn3cc(CN4C(=O)C5C(C4=O)C5(C)C)cc23)c1NCC1(C)CCNCC1 (stereo not shown) [Example 78, 3-((4-(5-chloro-3-methyl-2-(((4-methylpiperidin-4-yl)methyl)amino)phenyl)pyrrolo[2,1-f][1,2,4]triazin-6-yl)methyl)-6,6-dimethyl-3-azabicyclo[3.1.0]hexane-2,4-dione dihydrochloride]
< 500 nM	Cc1cc(Cl)cc(-c2ncnn3cc(Cn4c(=O)ccn(C)c4=O)cc23)c1CC1CNC[C@H](C)O1 (stereo partly drawn) [Example 59, 3-((4-(5-chloro-3-methyl-2-(((6S)-6-methylmorpholin-2-yl)methyl)phenyl)pyrrolo[2,1-f][1,2,4]triazin-6-yl)methyl)-1-methylpyrimidine-2,4(1H,3H)-dione hydrochloride]
< 500 nM	CC1(C)C2C(=O)N(Cc3cc4c(-c5cc(Cl)cc6c5N(C5CCNC5)CCC6)ncnn4c3)C(=O)C21 (single isomer, unassigned) [Example 66, 3-((4-(6-chloro-1-(pyrrolidin-3-yl)-1,2,3,4-tetrahydroquinolin-8-yl)pyrrolo[2,1-f][1,2,4]triazin-6-yl)methyl)-6,6-dimethyl-3-azabicyclo[3.1.0]hexane-2,4-dione hydrochloride]
< 500 nM	C[C@H]1CN(C2CCNC2)c2c(cc(Cl)cc2-c2ncnn3cc(CN4C(=O)C5C(C4=O)C5(C)C)cc23)O1 (stereo partly drawn) [Example 94, 3-((4-((2S)-7-chloro-2-methyl-4-(pyrrolidin-3-yl)-3,4-dihydro-2H-benzo[b][1,4]oxazin-5-yl)pyrrolo[2,1-f][1,2,4]triazin-6-yl)methyl)-6,6-dimethyl-3-azabicyclo[3.1.0]hexane-2,4-dione hydrochloride]
< 500 nM	Cc1cc(Cl)cc(-c2ncnn3cc(Cn4c(=O)ccn(C5CC5)c4=O)cc23)c1C[C@@H]1CNCCO1 (single isomer, unassigned) [Example 107, hydrochloride]
< 500 nM	Cc1cc(Cl)cc(-c2ncnn3cc(CN4C(=O)C5C(C4=O)C5(C)C)cc23)c1CC1CNC[C@H](C)O1 (stereo partly drawn) [Example 27, 3-((4-(5-chloro-3-methyl-2-(((6S)-6-methylmorpholin-2-yl)methyl)phenyl)pyrrolo[2,1-f][1,2,4]triazin-6-yl)methyl)-6,6-dimethyl-3-azabicyclo[3.1.0]hexane-2,4-dione dihydrochloride]
< 500 nM	CC1(C)C2C(=O)N(Cc3cc4c(-c5cc(C(F)(F)F)cc6ccn(CC7(F)CCNCC7)c56)ncnn4c3)C(=O)C21 (stereo not shown) [Example 22, 3-((4-(1-((4-fluoropiperidin-4-yl)methyl)-5-(trifluoromethyl)-1H-indol-7-yl)pyrrolo[2,1-f][1,2,4]triazin-6-yl)methyl)-6,6-dimethyl-3-azabicyclo[3.1.0]hexane-2,4-dione hydrochloride]
< 500 nM	Cc1cc(Cl)cc(-c2ncnn3cc(Cn4c(=O)ccn(C(C)C)c4=O)cc23)c1CC1CNC[C@H](C)O1 (stereo partly drawn) [Example 111, 3-((4-(5-chloro-3-methyl-2-(((6S)-6-methylmorpholin-2-yl)methyl)phenyl)pyrrolo[2,1-f][1,2,4]triazin-6-yl)methyl)-1-isopropylpyrimidine-2,4(1H,3H)-dione hydrochloride]
< 500 nM	Cc1cc(Cl)cc(-c2ncnn3cc(CN4C(=O)C5C(C4=O)C5(C)C)cc23)c1O[C@H]1CCCNC1 (stereo partly drawn) [Example 1, 3-((4-(5-chloro-3-methyl-2-(((S)-piperidin-3-yl)oxy)phenyl)pyrrolo[2,1-f][1,2,4]triazin-6-yl)methyl)-6,6-dimethyl-3-azabicyclo[3.1.0]hexane-2,4-dione hydrochloride]
< 500 nM	CC1(C)C2C(=O)N(Cc3cc4c(-c5cc(Cl)cc6ccn(CC7(F)CCCNC7)c56)ncnn4c3)C(=O)C21 (stereo not shown) [Example 29, 3-((4-(5-chloro-1-((3-fluoropiperidin-3-yl)methyl)-1H-indol-7-yl)pyrrolo[2,1-f][1,2,4]triazin-6-yl)methyl)-6,6-dimethyl-3-azabicyclo[3.1.0]hexane-2,4-dione hydrochloride]
< 500 nM	CC1(C)C2C(=O)N(Cc3cc4c(-c5cc(Cl)cc6c5N(CC5(F)CCNCC5)CCC6)ncnn4c3)C(=O)C21 (stereo not shown) [Example 63, 3-((4-(6-chloro-1-((4-fluoropiperidin-4-yl)methyl)-1,2,3,4-tetrahydroquinolin-8-yl)pyrrolo[2,1-f][1,2,4]triazin-6-yl)methyl)-6,6-dimethyl-3-azabicyclo[3.1.0]hexane-2,4-dione hydrochloride]
< 500 nM	CC1(C)C2C(=O)N(Cc3cc4c(-c5cc(Cl)cc6c5N(C5CCNC5)CCC6)ncnn4c3)C(=O)C21 (racemic) [Example 51, 3-((4-(6-chloro-1-(pyrrolidin-3-yl)-1,2,3,4-tetrahydroquinolin-8-yl)pyrrolo[2,1-f][1,2,4]triazin-6-yl)methyl)-6,6-dimethyl-3-azabicyclo[3.1.0]hexane-2,4-dione hydrochloride]
< 500 nM	CC1(C)C2C(=O)N(Cc3cc4c(-c5cc(Cl)cc6ccn(CC7(C#N)CCNCC7)c56)ncnn4c3)C(=O)C21 (stereo not shown) [Example 25, 4-((5-chloro-7-(6-((6,6-dimethyl-2,4-dioxo-3-azabicyclo[3.1.0]hexan-3-yl)methyl)pyrrolo[2,1-f][1,2,4]triazin-4-yl)-1H-indol-1-yl)methyl)piperidine-4-carbonitrile 2,2,2-trifluoroacetate]
< 500 nM	O=C1CNC(=O)N1Cc1cc2c(-c3cc(Cl)cc4ccn(C[C@@H]5CNCCO5)c34)ncnn2c1 [Example 37, (S)-3-((4-(5-chloro-1-(morpholin-2-ylmethyl)-1H-indol-7-yl)pyrrolo[2,1-f][1,2,4]triazin-6-yl)methyl)imidazolidine-2,4-dione hydrochloride]
< 500 nM	Cn1ccc(=O)n(Cc2cc3c(-c4cc(Cl)cc(Cl)c4CC4CNCCO4)ncnn3c2)c1=O (stereo not shown) [Example 118, 3-((4-(3,5-dichloro-2-(morpholin-2-ylmethyl)phenyl)pyrrolo[2,1-f][1,2,4]triazin-6-yl)methyl)-1-methylpyrimidine-2,4(1H,3H)-dione hydrochloride]
< 500 nM	Cc1cc(Cl)cc(-c2ncnn3cc(Cn4c(=O)ccn(C(C)C)c4=O)cc23)c1C[C@@H]1CNCCO1 (single isomer, unassigned) [Example 89, hydrochloride]
< 500 nM	Cc1cc(Cl)cc(-c2ncnn3cc(Cn4c(=O)ccn(CC(F)F)c4=O)cc23)c1CC1CNC[C@H](C)O1 (stereo partly drawn) [Example 95, 3-((4-(5-chloro-3-methyl-2-(((6S)-6-methylmorpholin-2-yl)methyl)phenyl)pyrrolo[2,1-f][1,2,4]triazin-6-yl)methyl)-1-(2,2-difluoroethyl)pyrimidine-2,4(1H,3H)-dione hydrochloride]
< 500 nM	Cc1cc(Cl)cc(-c2ncnn3cc(Cn4c(=O)ccn(CC(F)(F)F)c4=O)cc23)c1CC1CNCCO1 (racemic) [Example 68, 3-((4-(5-chloro-3-methyl-2-(morpholin-2-ylmethyl)phenyl)pyrrolo[2,1-f][1,2,4]triazin-6-yl)methyl)-1-(2,2,2-trifluoroethyl)pyrimidine-2,4(1H,3H)-dione hydrochloride]
< 500 nM	Cc1cc(Cl)cc(-c2ncnn3cc(Cn4c(=O)ccn(C)c4=O)cc23)c1C[C@@H]1CNCCO1 (single isomer, unassigned) [Example 82, hydrochloride]
< 500 nM	Cc1cc(Cl)cc(-c2ncnn3cc(Cn4c(=O)ccn(C)c4=O)cc23)c1CC1CN[C@@H](C)CO1 (single isomer, unassigned) [Example 110, hydrochloride]
< 500 nM	C[C@H]1CNCC(Cc2c(Cl)cc(Cl)cc2-c2ncnn3cc(Cn4c(=O)ccn(C)c4=O)cc23)O1 (single isomer, unassigned) [Example 126, hydrochloride]
< 500 nM	CC1(C)C2C(=O)N(Cc3cc4c(-c5cc(Cl)cc6cnn(C[C@@H]7CNCCO7)c56)ncnn4c3)C(=O)C21 (stereo partly drawn) [Example 44, 3-((4-(5-chloro-1-(((S)-morpholin-2-yl)methyl)-1H-indazol-7-yl)pyrrolo[2,1-f][1,2,4]triazin-6-yl)methyl)-6,6-dimethyl-3-azabicyclo[3.1.0]hexane-2,4-dione 2,2,2-trifluoroacetate]
< 500 nM	Cc1cc(Cl)cc(-c2ncnn3cc(CN4C(=O)C5C(C4=O)C5(C)C)cc23)c1OCC1CCNCC1 (stereo not shown) [Example 48, 3-((4-(5-chloro-3-methyl-2-(piperidin-4-ylmethoxy)phenyl)pyrrolo[2,1-f][1,2,4]triazin-6-yl)methyl)-6,6-dimethyl-3-azabicyclo[3.1.0]hexane-2,4-dione hydrochloride]
< 500 nM	Cc1cc(Cl)cc(-c2ncnn3cc(CN4C(=O)C5C(C4=O)C5(C)C)cc23)c1CN1CCNC[C@@H]1C (stereo partly drawn) [Example 6, 3-((4-(5-chloro-3-methyl-2-(((S)-2-methylpiperazin-1-yl)methyl)phenyl)pyrrolo[2,1-f][1,2,4]triazin-6-yl)methyl)-6,6-dimethyl-3-azabicyclo[3.1.0]hexane-2,4-dione hydrochloride]
